Results on 24 compounds are retold here after patent publication US9994587B2, “HIV protease inhibitors” (priority 2014, dated 2018).

The assay has as its target T1, wildtype HIV-1 protease (Human immunodeficiency virus type 1 group M subtype B, UniProt P04585).
T1 construct: preincubated with the HIV-1 protease (wild type) enzyme in assay buffer; made in house; host or cells: Escherichia coli
Briefly: Assay for inhibition of microbial expressed HIV protease (Pepcleav). In kind it is biochemical. Particulars: wild type HIV-1 protease 20 pM, peptide substrate 400 micromolar, pH 5.5; mean of at least two independent experiments. The method in brief: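 E. coli-expressed enzyme preincubated with inhibitor 30 min at room temperature in 50 mM sodium acetate pH 5.5, 100 mM NaCl, 0.1% BSA, then 400 micromolar peptide substrate added with 20 picomolar protease (final), 1 h at 30° C. Product quantified by LC-MS/MS peak area after formic acid/indinavir quench.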
The IC50 is the point on the concentration scale where inhibition reaches its midpoint. The compound `COC(=O)N[C@H](C(=O)Nc1ccccc1CC[C@@H]1CNC[C@@H](C[S+]([O-])c2ccc(Cl)cc2)O1)C(c1ccccc1)c1ccccc1` (stereo partly drawn) [Example 57, methyl N-[(1S)-1-benzhydryl-2-[[2-[2-[(2R,6S)-6-[(4-chlorophenyl)sulfinylmethyl]morpholin-2-yl]ethyl]phenyl]amino]-2-oxo-ethyl]carbamate] yielded an IC50 of 280 nM.
Under `COC(=O)N[C@H](C(=O)Nc1ccccc1OC[C@@H]1CNC[C@@H](CSc2ccc(Cl)cc2)O1)C(c1ccccc1)c1ccccc1` [Example 58, methyl N-[(1S)-1-benzhydryl-2-[[2-[[(2S,6S)-6-[(4-chlorophenyl)sulfanylmethyl]morpholin-2-yl]methoxy]phenyl]amino]-2-oxo-ethyl]carbamate] stands 8.1 nM.
Turning to `COC(=O)N[C@H](C(=O)Nc1ccccc1CC[C@@H]1CNC[C@@H](COCc2ccc(Cl)cc2)O1)C(c1ccccc1)c1ccccc1` [Example 59, methyl N-[(1S)-1-benzhydryl-2-[[2-[2-[(2R,6S)-6-[(4-chlorophenyl)methoxymethyl]morpholin-2-yl]ethyl]phenyl]amino]-2-oxo-ethyl]carbamate], the IC50 came out at 62 nM.
`COC(=O)N[C@H](C(=O)Nc1ccccc1CC[C@@H]1CNC[C@@H](/C=C/c2ccc(Cl)cc2)O1)C(c1ccccc1)c1ccccc1` [Example 60, N-[2-(2-{(2R,6R)-6-[(E)-2-(4-chlorophenyl)ethenyl]morpholin-2-yl}ethyl)phenyl]-Nα-(methoxycarbonyl)-β-phenyl-L-phenylalaniamide] returned an IC50 of 19 nM.
Under `COC(=O)N[C@H](C(=O)Nc1ccccc1CC[C@@H]1CNC[C@@H](/C=C/c2ccc(S(C)(=O)=O)cc2)O1)C(c1ccccc1)c1ccccc1` [Example 61, N-α-(methoxycarbonyl)-N-(2-{2-[(2R,6R)-6-{(E)-2-[4-(methylsulfonyl)phenyl]ethenyl}morpholin-2-yl]ethyl}phenyl)-β-phenyl-L-phenylalaninamide] stands 5.9 nM.
Under `COC(=O)N[C@H](C(=O)Nc1ccccc1CC[C@@H]1CNC[C@@H](CCc2ccc(C#N)cc2)O1)C(c1ccccc1)c1ccccc1` [Example 63, N-[2-(2-{(2R,6R)-6-[2-(4-cyanophenyl)ethyl]morpholin-2-yl}ethyl)phenyl]-N-α-(methoxycarbonyl)-β-phenyl-L-phenylalaninamide] stands 8.8 nM; under `COC(=O)N[C@H](C(=O)Nc1ccccc1CC[C@@H]1CNC[C@@H](CCOc2ccc(C#N)cc2)O1)C(c1ccccc1)c1ccccc1` [Example 64, N-[2-(2-{(2R,6R)-6-[2-(4-cyanophenoxy)ethyl]morpholin-2-yl}ethyl)phenyl]-Nα-(methoxycarbonyl)-β-phenyl-L-phenylalaninamide], 28 nM; under `COC(=O)N[C@H](C(=O)Nc1ccccc1CC[C@@H]1CNC[C@@H](C(F)(F)Cc2ccc(Br)cc2)O1)C(c1ccccc1)c1ccccc1` [Example 65, N-[2-(2-{(2R,6S)-6-[2-(4-bromophenyl)-1,1-difluoroethyl]morpholin-2-yl}ethyl)phenyl]-Nα-(methoxycarbonyl)-β-phenyl-L-phenylalaninamide], 50 nM.
`COC(=O)N[C@H](C(=O)Nc1ccccc1CC[C@@H]1CNC[C@@H](CSc2ccc(Cl)cc2)O1)[C@@H](c1ccccc1)c1cccnc1` [Example 66, (βS)—N-(2-{2-[(2R,6S)-6-{[(4-chlorophenyl)sulfanyl]methyl}morpholin-2-yl]ethyl}phenyl)-Nα-(methoxycarbonyl)-β-pyridin-3-yl-L-phenylalaninamide] displayed an IC50 of 0.2 nM. Compared with the last compound, the IC50 is about 250-fold lower.
Under `COC(=O)N[C@H](C(=O)Nc1ccccc1CC[C@@H]1CNC[C@@H](CSc2ccc(Cl)cc2)O1)[C@@H](c1ccccc1)c1c[nH]c2ncccc12` [Example 67, (βS)-N-(2-{2-[(2R,6S)-6-{[(4-chlorophenyl)sulfanyl]methyl}morpholin-2-yl]ethyl}phenyl)-Nα-(methoxycarbonyl)-β-1H-pyrrolo[2,3-b]pyridin-3-yl-L-phenylalaninamide] stands 0.11 nM; under `COC(=O)N[C@H](C(=O)Nc1ccccc1CC[C@@H]1CNC[C@@H](CSc2ccc(Cl)cc2)O1)[C@@H](c1ccccc1)c1ccnc2ccccc12` [Example 68, methyl[(2S,3S)-1-[(2-{2-[(2R,6S)-6-{[(4-chlorophenyl)sulfanyl]methyl}morpholin-2-yl]ethyl}phenyl)amino]-1-oxo-3-phenyl-3-(quinolin-4-yl)propan-2-yl]carbamate], 0.03 nM; under `COC(=O)N[C@H](C(=O)Nc1ccccc1CC[C@@H]1CNC[C@@H](CSc2ccc(Cl)cc2)O1)[C@H](c1ccccc1)c1ccncc1` [Example 69, (βR)-N-(2-{2-[(2R,6S)-6-{[(4-chlorophenyl)sulfanyl]methyl}morpholin-2-yl]ethyl}phenyl)-Nα-(methoxycarbonyl)-β-pyridin-4-yl-L-phenylalaninamide], 0.3 nM.
Under `COC(=O)N[C@@H](C(=O)Nc1ccccc1CC[C@@H]1CNC[C@@H](CSc2ccc(Cl)cc2)O1)[C@H](c1ccccc1)c1ccncc1` [Example 70, (βR)-N-(2-{2-[(2R,6S)-6-{[(4-chlorophenyl)sulfanyl]methyl}morpholin-2-yl]ethyl}phenyl)-Nα-(methoxycarbonyl)-β-pyridin-4-yl-D-phenylalaninamide] stands 0.74 nM.
Under `COC(=O)N[C@H](C(=O)Nc1cccc(F)c1CC[C@@H]1CNC[C@@H](COc2ccc(C#N)cc2)O1)C(c1ccccc1)c1ccccc1` [Example 71, N-[2-(2-{(2R,6S)-6-[(4-cyanophenoxy)methyl]morpholin-2-yl}ethyl)-3-fluorophenyl]-Nα-(methoxycarbonyl)-β-phenyl-L-phenylalaninamide] stands 7.4 nM.
With `COC(=O)N[C@H](C(=O)Nc1cc(F)ccc1CC[C@@H]1CNC[C@@H](COc2ccc(C#N)cc2)O1)C(c1ccccc1)c1ccccc1` [Example 72, N-[2-(2-{(2R,6S)-6-[(4-cyanophenoxy)methyl]morpholin-2-yl}ethyl)-5-fluorophenyl]-Nα-(methoxycarbonyl)-β-phenyl-L-phenylalaninamide], the IC50 was determined as 23 nM.
Under `COC(=O)N[C@H](C(=O)Nc1cccc(F)c1CC[C@@H]1CNC[C@@H](CSc2ccc(Cl)cc2)O1)C(c1ccccc1)c1ccccc1` [Example 73, N-(2-{2-[(2R,6S)-6-{[(4-chlorophenyl)sulfanyl]methyl}morpholin-2-yl]ethyl}-3-fluorophenyl)-Nα-(methoxycarbonyl)-β-phenyl-L-phenylalaninamide] stands 0.89 nM.
The compound `COC(=O)N[C@H](C(=O)Nc1ccc(F)cc1CC[C@@H]1CNC[C@@H](COc2cccc(C#N)c2)O1)C(c1ccccc1)c1ccccc1` [Example 74, N-[2-(2-{(2R,6S)-6-[(3-cyanophenoxy)methyl]morpholin-2-yl}ethyl)-4-fluorophenyl]-Nα-(methoxycarbonyl)-β-phenyl-L-phenylalaninamide] displayed an IC50 of 39 nM.
Under `COC(=O)N[C@H](C(=O)Nc1ccc(F)cc1CC[C@@H]1CNC[C@@H](COc2ccc(C#N)cc2)O1)C(c1ccccc1)c1ccccc1` [Example 75, N-[2-(2-{(2R,6S)-6-[(4-cyanophenoxy)methyl]morpholin-2-yl}ethyl)-4-fluorophenyl]-Nα-(methoxycarbonyl)-β-phenyl-L-phenylalaninamide] stands 46 nM; under `COC(=O)N[C@H](C(=O)Nc1c(F)cccc1CC[C@@H]1CNC[C@@H](COc2ccc(C#N)cc2)O1)C(c1ccccc1)c1ccccc1` [Example 76, N-[2-(2-{(2R,6S)-6-[(4-cyanophenoxy)methyl]morpholin-2-yl}ethyl)-6-fluorophenyl]-Nα-(methoxycarbonyl)-β-phenyl-L-phenylalaninamide], 9.1 nM; under `COC(=O)N[C@H](C(=O)Nc1c(F)cccc1CC[C@@H]1CNC[C@@H](CSc2nc3cc(F)c(Cl)cc3[nH]2)O1)C(c1ccccc1)c1ccccc1` [Example 77, N-(2-{2-[(2R,6S)-6-{[(6-chloro-5-fluoro-1H-benzimidazol-2-yl)sulfanyl]methyl}morpholin-2-yl]ethyl}-6-fluorophenyl)-Nα-(methoxycarbonyl)-β-phenyl-L-phenylalaninamide], 11 nM.
Turning to `COC(=O)N[C@H](C(=O)Nc1cc(F)cnc1CC[C@@H]1CNC[C@@H](COc2ccc(C#N)cc2)O1)C(c1ccccc1)c1ccccc1` [Example 78, N-[2-(2-{(2R,6S)-6-[(4-cyanophenoxy)methyl]morpholin-2-yl}ethyl)-5-fluoropyridin-3-yl]-Nα-(methoxycarbonyl)-β-phenyl-L-phenylalaninamide], the IC50 came out at 150 nM.
Under `COC(=O)N[C@H](C(=O)Nc1cncnc1CC[C@@H]1CNC[C@@H](COc2ccc(C#N)cc2)O1)C(c1ccccc1)c1ccccc1` [Example 79, N-[4-(2-{(2R,6S)-6-[(4-cyanophenoxy)methyl]morpholin-2-yl}ethyl)pyrimidin-5-yl]-Nα-(methoxycarbonyl)-β-phenyl-L-phenylalaninamide] stands 120 nM; under `COC(=O)N[C@H](C(=O)Nc1cccnc1CC[C@@H]1CNC[C@@H](CSc2ncccc2Cl)O1)C(c1ccccc1)c1ccccc1` [Example 80, N-(2-{2-[(2R,6S)-6-{[(3-chloropyridin-2-yl)sulfanyl]methyl}morpholin-2-yl]ethyl}pyridin-3-yl)-Nα-(methoxycarbonyl)-β-phenyl-L-phenylalaninamide], 58 nM.
Under `COC(=O)N[C@H](C(=O)Nc1cnccc1CC[C@@H]1CNC[C@@H](COc2ccc(C#N)cc2)O1)C(c1ccccc1)c1ccccc1` [Example 81, N-[4-(2-{(2R,6S)-6-[(4-cyanophenoxy)methyl]morpholin-2-yl}ethyl)pyridin-3-yl]-Nα-(methoxycarbonyl)-β-phenyl-L-phenylalaninamide] stands 53 nM.
